Test results: US10251889B2, “Substituted pyrazolo[1,5-a]pyrimidine compounds as Trk kinase inhibitors” (Array BioPharma, Inc., priority 2009, dated 2019)

biological target: Jak2 (human Jak2 kinase domain, amino acids 808-1132) (Homo sapiens (Human), UniProt O60674); experiment: Jak2 inhibition assay (Omnia kinase assay); format: biochemical; settings: read-out: Jak2 Enzyme (% inhibition at 1000 nM), Table 1; 1000 nM test compound
Protocol: The assays described in Examples C, D, E and F for the determination of JAK1, JAK2, JAK3 and Tyk2 kinase activity, respectively, utilized the Omnia® Kinase fluorescence peptide substrate-based technology (Invitrogen). […] The reactions were therefore read at excitation 360 nm and emission was measured at 485 nm every 50 seconds for 45 minutes using a PerkinElmer EnVision Multilabel Plate Reader.
The final buffer conditions for each of the JAK1, JAK2, JAK3 and Tyk2 assays were as follows: 25 mM HEPES, pH 7.4, 10 mM MgCl2, 0.01% Triton X-100 and 1 mM DTT.
Two-μL aliquots of these were transferred to a fresh plate for a ten-fold intermediate dilution with assay buffer. Five-μL aliquots of the diluted compounds were then transferred to 20-μL of assay mixtures described in Examples C, D, E and F for a final concentration of DMSO of 2%. […] For each plate, percent of control (POC) values were calculated for each well according to the following equation:
where Xmax=Average Uninhibited Controls • Xmin=Average Background IC50's were estimated from the POC's using a standard 4-parameter logistic model:
where A=Minimum Y (Bottom Asymptote) • B=Maximum Y (Top Asymptote) • C=EC50 • D=Slope Factor • X=Compound Concentration (nM) • Y=POC
The IC50 is defined as the concentration of inhibitor at which the POC equals 50 for the fitted curve.
Compounds of Formula I were screened for their ability to inhibit Jak2 using the general enzyme inhibition assay method, in which the assay mixture contained 500 μM ATP, 10 μM Omnia® Y7 peptide (Catalog # IVGN KNZ3071C, Invitrogen Corporation, Carlsbad, Calif.) and 4 nM Jak2 in a total volume of 20 μL. Human Jak2 kinase domain comprising amino acids 808-1132 was purchased from Invitrogen Corporation, Carlsbad, Calif. (catalog # IVGN PV4210).

Sequence of Jak2 (human Jak2 kinase domain, amino acids 808-1132) (O60674 808-1132): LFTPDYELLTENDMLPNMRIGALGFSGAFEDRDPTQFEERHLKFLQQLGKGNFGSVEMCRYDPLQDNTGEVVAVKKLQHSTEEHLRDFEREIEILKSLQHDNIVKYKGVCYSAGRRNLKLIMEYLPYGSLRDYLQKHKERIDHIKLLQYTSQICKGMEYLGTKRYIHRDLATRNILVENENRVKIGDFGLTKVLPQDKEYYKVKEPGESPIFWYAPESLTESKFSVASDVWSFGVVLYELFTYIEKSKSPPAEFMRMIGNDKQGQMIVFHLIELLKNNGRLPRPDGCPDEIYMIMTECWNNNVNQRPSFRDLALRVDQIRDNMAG

With `O=C(NC[C@@H](O)CO)c1cnn2ccc(N3CCC[C@@H]3c3cc(F)ccc3C(F)(F)F)nc12` [Example 63, N—((R)-2,3-dihydroxypropyl)-5-((R)-2-(5-fluoro-2-(trifluoromethyl)phenyl)pyrrolidin-1-yl)pyrazolo[1,5-a]pyrimidine-3-carboxamide] as the compound, how does the inhibition at 1 µM read?
The inhibition at 1 µM was 33.1%.

`NC(=O)c1cnn2ccc(N3CCC[C@@H]3c3cc(F)ccc3C(F)(F)F)nc12` [Example 64, (R)-5-(2-(5-fluoro-2-(trifluoromethyl)phenyl)pyrrolidin-1-yl)pyrazolo[1,5-a]pyrimidine-3-carboxamide] was tested. Which inhibition at 1 µM did it give?
Its inhibition at 1 µM is 60.3%.

With `CONC(=O)c1cnn2ccc(N3CCC[C@@H]3c3cc(F)ccc3F)nc12` [Example 65, (R)-5-(2-(2,5-difluorophenyl)pyrrolidin-1-yl)-N-methoxypyrazolo[1,5-a]pyrimidine-3-carboxamide] as the compound, how does the inhibition at 1 µM read?
Its inhibition at 1 µM is 34.1%.

With `O=C(NOCC1CC1)c1cnn2ccc(N3CCC[C@@H]3c3cc(F)ccc3F)nc12` [Example 66, (R)—N-(cyclopropylmethoxy)-5-(2-(2,5-difluorophenyl)pyrrolidin-1-yl)pyrazolo[1,5-a]pyrimidine-3-carboxamide] as the compound, how does the inhibition at 1 µM read?
The inhibition at 1 µM was 24.7%.

How did the inhibition at 1 µM turn out when `CC1(C)CC[C@H](c2cc(F)ccc2F)N1c1ccn2ncc(C(N)=O)c2n1` [Example 67, (R)-5-(5-(2,5-difluorophenyl)-2,2-dimethylpyrrolidin-1-yl)pyrazolo[1,5-a]pyrimidine-3-carboxamide] was run?
Its inhibition at 1 µM is 22.3%.

With `CC1(C)CC[C@H](c2cc(F)ccc2F)N1c1ccn2ncc(C(=O)NC3CC3)c2n1` [Example 68, (R)—N-cyclopropyl-5-(5-(2,5-difluorophenyl)-2,2-dimethylpyrrolidin-1-yl)pyrazolo[1,5-a]pyrimidine-3-carboxamide] as the compound, how does the inhibition at 1 µM read?
Its inhibition at 1 µM is 23%.

For `CC(C)(C#N)NC(=O)c1cnn2ccc(N3CCC[C@@H]3c3cncc(F)c3)nc12` [Example 69, (R)—N-(2-cyanopropan-2-yl)-5-(2-(5-fluoropyridin-3-yl)pyrrolidin-1-yl)pyrazolo[1,5-a]pyrimidine-3-carboxamide], which inhibition at 1 µM is on record?
Its inhibition at 1 µM is 6%.

How did the inhibition at 1 µM turn out when `CC(C)(CF)NC(=O)c1cnn2ccc(N3CCC[C@@H]3c3cncc(F)c3)nc12` [Example 71, (R)—N-(1-fluoro-2-methylpropan-2-yl)-5-(2-(5-fluoropyridin-3-yl)pyrrolidin-1-yl)pyrazolo[1,5-a]pyrimidine-3-carboxamide] was run?
Its inhibition at 1 µM is 6.2%.

How did the inhibition at 1 µM turn out when `O=C(NC1CCOCC1)c1cnn2ccc(N3CCC[C@@H]3c3cncc(F)c3)nc12` [Example 72, (R)-5-(2-(5-fluoropyridin-3-yl)pyrrolidin-1-yl)-N-(tetrahydro-2H-pyran-4-yl)pyrazolo[1,5-a]pyrimidine-3-carboxamide] was run?
Its inhibition at 1 µM is 11.7%.

For `CONC(=O)c1cnn2ccc(N3CCC[C@@H]3c3cncc(F)c3)nc12` [Example 73, (R)-5-(2-(5-fluoropyridin-3-yl)pyrrolidin-1-yl)-N-methoxypyrazolo[1,5-a]pyrimidine-3-carboxamide], which inhibition at 1 µM is on record?
Its inhibition at 1 µM is 4.9%.

`CONC(=O)c1cnn2ccc(N3CCC[C@@H]3c3cccc(F)c3)nc12` [Example 75] was tested. Which inhibition at 1 µM did it give?
Its inhibition at 1 µM is 15.1%.

`NC(=O)c1cnn2ccc(N3CCC[C@@H]3c3cc(F)cc(OCCN4CCOCC4)c3)nc12` [Example 76, (R)-5-(2-(3-fluoro-5-(2-morpholinoethoxy)phenyl)pyrrolidin-1-yl)pyrazolo[1,5-a]pyrimidine-3-carboxamide] was tested. Which inhibition at 1 µM did it give?
Its inhibition at 1 µM is 4.8%.

Which inhibition at 1 µM does the source give for `COCCOc1cc(F)cc([C@H]2CCCN2c2ccn3ncc(C(=O)NC4CC4)c3n2)c1` [Example 77, (R)—N-cyclopropyl-5-(2-(3-fluoro-5-(2-methoxyethoxy)phenyl)pyrrolidin-1-yl)pyrazole [1,5-a]pyrimidine-3-carboxamide] here?
Its inhibition at 1 µM is 15.3%.

How did the inhibition at 1 µM turn out when `COCCOc1cc(F)cc([C@H]2CCCN2c2ccn3ncc(C(N)=O)c3n2)c1` [Example 78, (R)-5-(2-(3-fluoro-5-(2-methoxyethoxy)phenyl)pyrrolidin-1-yl)pyrazolo[1,5-a]pyrimidine-3-carboxamide] was run?
Its inhibition at 1 µM is 5.8%.

For `COc1ncc(F)cc1[C@H]1CCCN1c1ccn2ncc(C(=O)NC3CC3)c2n1` [Example 79, (R)—N-cyclopropyl-5-(2-(5-fluoro-2-methoxypyridin-3-yl)pyrrolidin-1-yl)pyrazolo[1,5-a]pyrimidine-3-carboxamide], which inhibition at 1 µM is on record?
The inhibition at 1 µM was 54.8%.

How did the inhibition at 1 µM turn out when `COc1ncc(F)cc1[C@H]1CCCN1c1ccn2ncc(C(=O)NC(C)(C)C)c2n1` [Example 80, (R)—N-tert-butyl-5-(2-(5-fluoro-2-methoxypyridin-3-yl)pyrrolidin-1-yl)pyrazolo[1,5-a]pyrimidine-3-carboxamide] was run?
Its inhibition at 1 µM is 50.7%.

For `COc1ncc(F)cc1[C@H]1CCCN1c1ccn2ncc(C(=O)NC(C)(C)CF)c2n1` [Example 81, (R)-5-(2-(5-fluoro-2-methoxypyridin-3-yl)pyrrolidin-1-yl)-N-(1-fluoro-2-methylpropan-2-yl)pyrazolo[1,5-a]pyrimidine-3-carboxamide], which inhibition at 1 µM is on record?
The inhibition at 1 µM was 54.4%.

`COc1ncc(F)cc1[C@H]1CCCN1c1ccn2ncc(C(N)=O)c2n1` [Example 82, (R)-5-(2-(5-fluoro-2-methoxypyridin-3-yl)pyrrolidin-1-yl)pyrazolo[1,5-a]pyrimidine-3-carboxamide] was tested. Which inhibition at 1 µM did it give?
The inhibition at 1 µM was 10.7%.

Which inhibition at 1 µM does the source give for `CONC(=O)c1cnn2ccc(N3CCC[C@@H]3c3cc(F)cnc3OC)nc12` [Example 83, (R)-5-(2-(5-fluoro-2-methoxypyridin-3-yl)pyrrolidin-1-yl)-N-methoxypyrazolo[1,5-a]pyrimidine-3-carboxamide] here?
The inhibition at 1 µM was 26.3%.

With `O=C(NC1(C(=O)O)CC1)c1cnn2ccc(N3CCC[C@@H]3c3cc(F)ccc3F)nc12` [Example 84, (R)-1-(5-(2-(2,5-difluorophenyl)pyrrolidin-1-yl)pyrazolo[1,5-a]pyrimidine-3-carboxamido)cyclopropanecarboxylic Acid] as the compound, how does the inhibition at 1 µM read?
Its inhibition at 1 µM is 2.7%.

Which inhibition at 1 µM does the source give for `O=C(NC1CC1)c1cnn2ccc(N3CCC[C@@H]3c3cc(F)cc(OCCN4CCOCC4)c3)nc12` [Example 85, (R)—N-cyclopropyl-5-(2-(3-fluoro-5-(2-morpholinoethoxy)phenyl)pyrrolidin-1-yl)pyrazolo[1,5-a]pyrimidine-3-carboxamide] here?
Its inhibition at 1 µM is 6%.

How did the inhibition at 1 µM turn out when `NC(=O)c1cnn2ccc(N3CCC[C@@H]3c3cc(F)ccc3OCCN3CCOCC3)nc12` [Example 86, (R)-5-(2-(5-fluoro-2-(2-morpholinoethoxy)phenyl)pyrrolidin-1-yl)pyrazolo[1,5-a]pyrimidine-3-carboxamide] was run?
Its inhibition at 1 µM is 17.3%.

Which inhibition at 1 µM does the source give for `O=C(NC1CC1)c1cnn2ccc(N3CCC[C@@H]3c3cc(F)ccc3OCCN3CCOCC3)nc12` [Example 87, (R)—N-cyclopropyl-5-(2-(5-fluoro-2-(2-morpholinoethoxy)phenyl)pyrrolidin-1-yl)pyrazolo[1,5-a]pyrimidine-3-carboxamide] here?
The inhibition at 1 µM was 37.2%.

Which inhibition at 1 µM does the source give for `O=C(NOC[C@@H](O)CO)c1cnn2ccc(N3CCC[C@@H]3c3cc(F)ccc3F)nc12` [Example 88, 5-((R)-2-(2,5-difluorophenyl)pyrrolidin-1-yl)-N—((S)-2,3-dihydroxypropoxy)pyrazolo[1,5-a]pyrimidine-3-carboxamide] here?
The inhibition at 1 µM was 15.1%.

How did the inhibition at 1 µM turn out when `COCCOc1ccc(F)cc1[C@H]1CCCN1c1ccn2ncc(C(N)=O)c2n1` [Example 89, (R)-5-(2-(5-fluoro-2-(2-methoxyethoxy)phenyl)pyrrolidin-1-yl)pyrazolo[1,5-a]pyrimidine-3-carboxamide] was run?
The inhibition at 1 µM was 33.1%.

How did the inhibition at 1 µM turn out when `COCCOc1ccc(F)cc1[C@H]1CCCN1c1ccn2ncc(C(=O)NC3CC3)c2n1` [Example 90, (R)—N-cyclopropyl-5-(2-(5-fluoro-2-(2-methoxyethoxy)phenyl)pyrrolidin-1-yl)pyrazolo[1,5-a]pyrimidine-3-carboxamide] was run?
Its inhibition at 1 µM is 67.3%.

Which inhibition at 1 µM does the source give for `CC1(O)CN(C(=O)c2cnn3ccc(N4CCC[C@@H]4c4cncc(F)c4)nc23)C1` [Example 92, (R)-(5-(2-(5-fluoropyridin-3-yl)pyrrolidin-1-yl)pyrazolo[1,5-a]pyrimidin-3-yl)(3-hydroxy-3-methylazetidin-1-yl)methanone] here?
Its inhibition at 1 µM is 0.5%.

Which inhibition at 1 µM does the source give for `O=C(c1cnn2ccc(N3CCC[C@@H]3c3cncc(F)c3)nc12)N1CCCC1` [Example 94, (R)-(5-(2-(5-fluoropyridin-3-yl)pyrrolidin-1-yl)pyrazolo[1,5-a]pyrimidin-3-yl)(pyrrolidin-1-yl)methanone] here?
Its inhibition at 1 µM is 4.4%.

Which inhibition at 1 µM does the source give for `O=C(Nc1ccc(F)cn1)c1cnn2ccc(N3CCC[C@@H]3c3cncc(F)c3)nc12` [Example 95, (R)—N-(5-fluoropyridin-2-yl)-5-(2-(5-fluoropyridin-3-yl)pyrrolidin-1-yl)pyrazolo[1,5-a]pyrimidine-3-carboxamide] here?
The inhibition at 1 µM was 19.2%.

For `O=C(NCC(F)CCl)c1cnn2ccc(N3CCC[C@@H]3c3cncc(F)c3)nc12` (stereo partly drawn) [Example 97, N-(3-chloro-2-fluoropropyl)-5-((R)-2-(5-fluoropyridin-3-yl)pyrrolidin-1-yl)pyrazolo[1,5-a]pyrimidine-3-carboxamide], which inhibition at 1 µM is on record?
The inhibition at 1 µM was 6.8%.
